For one test, the system named is Hin446. The test is described as follows: Bacterial susceptibility testing (MIC), Hin446. The format is cell-based. The following applies: Haemophilus influenzae, liquid media, 37° C., 24 hours, lowest concentration reducing growth by 80% or more. The text has this: (§1) Compounds may be tested for antimicrobial activity by susceptibility testing in liquid media in a 96 well format. Compounds may be dissolved in dimethylsulfoxide and tested in 10 doubling dilutions in the susceptibility assays. The organisms used in the assay may be grown overnight on suitable agar media and then suspended in a liquid medium appropriate for the growth of the organism. The suspension may be a 0.5 McFarland and a further 1 in 10 dilution may be advantageously made into the same liquid medium to prepare the final organism suspension in 100 μL. Plates may be incubated under appropriate conditions at 37° C. for 24 hours prior to reading. The Minimum Inhibitory Concentration (MIC) is intended to refer to the lowest drug concentration able to reduce growth by 80% or more.
(§2) Compounds may be evaluated against organisms such as Gram-positive species, including Staphylococcus aureus, Streptococcus pneumoniae, and Streptococcus pyogenes; and Gram-negative species including Haemophilus influenzae, and Moraxella catarrhalis.

In another test the test system is Spy838. Briefly: Bacterial susceptibility testing (MIC), Spy838. The following applies: Streptococcus pyogenes, liquid media, 37° C., 24 hours, lowest concentration reducing growth by 80% or more. The format is cell-based.
Excerpt: as §1, §2

A further test concerns Mca445. Briefly: Bacterial susceptibility testing (MIC), Mca445. Format: cell-based. The settings on record: Moraxella catarrhalis, liquid media, 37° C., 24 hours, lowest concentration reducing growth by 80% or more.
Excerpt: as §1, §2

A further test has as its system Sau517. The test is described as follows: Bacterial susceptibility testing (MIC), Sau517. The format is cell-based. The settings on record: Staphylococcus aureus, liquid media, 37° C., 24 hours, lowest concentration reducing growth by 80% or more.
Excerpt: as §1, §2

For a further test, the system named is Spn538. The test is described as follows: Bacterial susceptibility testing (MIC), Spn538. The format is cell-based. The following applies: Streptococcus pneumoniae, liquid media, 37° C., 24 hours, lowest concentration reducing growth by 80% or more.
Excerpt: as §1, §2

Another test concerns Spn548. Briefly: Bacterial susceptibility testing (MIC), Spn548. The settings on record: Streptococcus pneumoniae, liquid media, 37° C., 24 hours, lowest concentration reducing growth by 80% or more. The format is cell-based.
Excerpt: as §1, §2

For another test, the system named is Hin737. The test is described as follows: Bacterial susceptibility testing (MIC), Hin737. The format is cell-based. The following applies: Haemophilus influenzae, liquid media, 37° C., 24 hours, lowest concentration reducing growth by 80% or more.
Excerpt: as §1, §2

The next test concerns Sau516. The test is described as follows: Bacterial susceptibility testing (MIC), Sau516. The format is cell-based. The following applies: Staphylococcus aureus, liquid media, 37° C., 24 hours, lowest concentration reducing growth by 80% or more.
Excerpt: as §1, §2

The next test deals with Hin158. Briefly: Bacterial susceptibility testing (MIC), Hin158. The following applies: Haemophilus influenzae, liquid media, 37° C., 24 hours, lowest concentration reducing growth by 80% or more. Format: cell-based.
Excerpt: as §1, §2

Test [1] addresses Escherichia coli DNA gyrase A/B tetramer (Escherichia coli, UniProt P0AES4+P0AES6). The test is described as follows: DNA gyrase supercoiling activity fluorescence polarisation assay. The format is biochemical. In a few lines:
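5 nM gyrase supercoils 130 μg/ml relaxed triplex-sequence plasmid with 0.3 mM ATP in Tris pH 7.5/KCl/MgCl2/spermidine buffer, 0.8% DMSO, ~30 min at ambient temperature, 5-10 compound concentrations. Quenched with 40 nM BODIPY-FL triplex probe at pH 3.5; anisotropy read after 60 min (485/535 nm). IC50 by nonlinear regression against no-compound and 5 uM ciprofloxacin controls.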

This note sets out measurements from patent publication US20100261719A1, “CHEMICAL COMPOUNDS” (priority 2007, published 2010).

Converted amounts (≈) assume the structure as drawn. Where two headings read alike, the source gives them in different places.

Chain of Escherichia coli DNA gyrase A/B tetramer (P0AES4 whole entry, one chain of several): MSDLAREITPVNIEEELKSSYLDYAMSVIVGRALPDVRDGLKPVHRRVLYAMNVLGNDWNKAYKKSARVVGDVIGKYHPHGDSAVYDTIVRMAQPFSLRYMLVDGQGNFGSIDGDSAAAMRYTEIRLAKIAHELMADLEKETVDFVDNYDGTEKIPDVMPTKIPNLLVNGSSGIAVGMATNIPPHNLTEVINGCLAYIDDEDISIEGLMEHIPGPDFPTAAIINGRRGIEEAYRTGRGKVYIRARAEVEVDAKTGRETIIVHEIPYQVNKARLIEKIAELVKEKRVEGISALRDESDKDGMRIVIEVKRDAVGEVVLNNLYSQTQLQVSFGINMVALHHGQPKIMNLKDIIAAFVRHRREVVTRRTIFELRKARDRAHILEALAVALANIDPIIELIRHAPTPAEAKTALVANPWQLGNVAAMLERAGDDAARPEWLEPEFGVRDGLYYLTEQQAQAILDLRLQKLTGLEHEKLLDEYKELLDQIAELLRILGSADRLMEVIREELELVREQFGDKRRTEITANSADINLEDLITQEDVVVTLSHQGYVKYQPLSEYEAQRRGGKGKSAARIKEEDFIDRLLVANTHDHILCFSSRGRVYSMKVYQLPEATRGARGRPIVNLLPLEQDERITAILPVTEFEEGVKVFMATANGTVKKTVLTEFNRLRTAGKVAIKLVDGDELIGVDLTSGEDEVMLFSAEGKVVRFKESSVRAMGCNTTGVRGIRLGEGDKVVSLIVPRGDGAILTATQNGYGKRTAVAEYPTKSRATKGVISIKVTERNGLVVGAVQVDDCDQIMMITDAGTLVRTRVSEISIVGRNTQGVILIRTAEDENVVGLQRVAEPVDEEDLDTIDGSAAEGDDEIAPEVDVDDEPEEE

As to `C[C@@H]1CN2c3ccc(C#C[Si](C)(C)C)cc3CC3(C(=O)NC(=O)NC3=O)[C@H]2[C@H](C)O1` (racemic) [Example 1, (2R,4S,4aS)-rel-2,4-Dimethyl-8-((trimethylsilypethynyl)-2,4,4a,6-tetrahydro-1H,1′H-spiro[[1,4]oxazino[4,3-a]quinoline-5,5′-pyrimidine]-2′,4′,6′(3′H)-trion], the MIC with Hin446 is 4 µg/mL (≈ 9.4 µM); against Spy838 it was 16 µg/mL (≈ 37.6 µM); against Mca445 it was 2 µg/mL (≈ 4.7 µM); in the test on Sau517 it was 8 µg/mL (≈ 18.8 µM); in the test with Spn538 it was 32 µg/mL (≈ 75.2 µM); against Spn548 it was 16 µg/mL (≈ 37.6 µM). For the same compound, the MIC in the test on Hin737 came to 16 µg/mL (≈ 37.6 µM); against Sau516 it was 8 µg/mL (≈ 18.8 µM); in the test on Hin158 it was 0.13 µg/mL (≈ 0.305 µM). For the same compound, in [1], the IC50 came out at 7570 nM.
In the case of `C[C@@H]1CN2c3c(cc(C(=O)NC4CCS(=O)(=O)C4)c(F)c3F)CC3(C(=O)NC(=O)NC3=O)[C@H]2[C@H](C)O1` (relative stereo) [Example 62, (2R,4S,4aS)-rel-N-(1,1-Dioxidotetrahydrothiophen-3-yl)-9,10-difluoro-2,4-dimethyl-2′,4′,6′-trioxo-1,1′,2,3′,4,4′,4a,6′-octahydro-2′H,6H-spiro[1,4-oxazino[4,3-a]quinoline-5,5′-pyrimidine]-8-carboxamide], in test [1], half-maximal inhibition (IC50) required 7100 nM.
Turning to `C/C(=N\Nc1cnccn1)c1cc2c(c(F)c1F)N1C[C@@H](C)O[C@@H](C)[C@@H]1C1(C2)C(=O)NC(=O)NC1=O` (relative stereo) [Example 60, (2R,4S,4aS)-rel-9,10-Difluoro-2,4-dimethyl-8-{(1E)-1-[2-(pyrazin-2-yl)hydrazinylidene]ethyl}-1,2,4,4a-tetrahydro-2′H,6H-spiro[1,4-oxazino[4,3-a]quinoline-5,5′-pyrimidine]-2′,4′,6′(1′H,3′H)-trione], the half-maximal inhibitory concentration (IC50) in [1] came out at 260 nM.
With “(2R,4S,4aS)-rel-10-Fluoro-2,4-dimethyl-8-[(1-methyl-1H-imidazol-2-yl)ethynyl]-1,2,4,4a-tetrahydro-2′H,6H-spiro[1,4-oxazino[4,3-a]quinoline-5,5′-pyrimidine]-2′,4′,6(1′H,3′H)-trione [Example 42]”, the IC50 in test [1] (5 nM enzyme, 0.3 mM ATP, relaxed plasmid, fluorescence anisotropy readout, read-out: E. coli DNA gyrase supercoiling IC50) was determined as 640 nM.
Compound `C[C@@H]1CN2c3cc(F)c(C#Cc4cnccn4)cc3CC3(C(=O)NC(=O)NC3=O)[C@H]2[C@H](C)O1` (relative stereo) [Example 31, (2R,4S,4aS)-rel-9-Fluoro-2,4-dimethyl-8-(pyrazin-2-ylethynyl)-1,2,4,4a-tetrahydro-2′H,6H-spiro[1,4-oxazino[4,3-a]quinoline-5,5′-pyrimidine]-2′,4′,6′(1′H,3′H)-trione] registered a concentration for half-maximal inhibition (IC50) in test [1] of 980 nM.

The IC50 is the concentration at which inhibition is half-maximal.
